“Also recorded” adds a separate entry of the source. Marks after values point to notes of the source that are not given here.
How the values were obtained:
[1] = test system: Phusion DNA polymerase (Ph); test: Dropout assay, fidelity of incorporation by Ph; format: biochemical; conditions: 30 min reaction time, 55° C., templates PF21, PF41
Text: FIG. 13 illustrates the fidelity of 2′F-araNTP incorporation on pyrimidine rich DNA template PF21 by Ph DNA polymerase. […] Template PF41 and primer PF20 are shown; PF39 is a 27-nt DNA control.
FIG. 14 illustrates the fidelity of 2′F-araNTP incorporation on purine rich DNA template PF41 by Ph DNA polymerase. The base sequence of the primer, DNA template and resulting terminated products in different dropout conditions (condition 1-5) is shown. […] Lane 1: dNTPs; 2: drop out dCTP (i.e. dATP, dGTP and dTTP, shorten as AGT, same coding for lanes 3-5), lane 6: 2′F-araNTPs; 7: drop out 2′F-araCTP (i.e. 2′F-araATP, 2′F-araGTP, 2′F-araTTP, shorten as AGT; same coding for lanes 8-10). The template PF41 and the primer PF20 are shown; PF39 is a 27mer DNA control.
For example, the 2′F-araNTP of interest is removed from the pool, and the ensuing synthesis on DNA template (e.g. PF21, PF23, PF41, PF43) assessed in comparison with a control reaction containing all four 2′F-araNTPs. For comparison, dropout experiments containing dNTPs are run in parallel. […] Apparent fidelity was calculated according to the equation:
1−[(% full-length−2′F-araNTP)/(% full-length+2′F-araNTP)]
In one of these assays, 2′F-araATP was removed from the pool, and the ensuing synthesis assessed in comparison with a control reaction containing all four 2′F-araNTPs. For comparison, dropout experiments containing dNTPs were run in parallel (FIGS. 11-14).
Phusion DNA polymerase (Ph) was evaluated for fidelity of 2′F-araNTP incorporation using the same dropout assay. All four dropout experiments were conducted with the same DNA template PF21 (FIG. 13), or PF41 (FIG. 14).

[2] = target: T1, Deep Vent® (3′→5′ exo-) DNA polymerase (DV) (Pyrococcus sp., UniProt Q51334, D141A/DEL493-1029/E143A); test: Primer extension assay with Deep Vent (exo-) DNA polymerase; format: biochemical, Pyrococcus species GB-D; set-up: key to Incorporation of three 2′F-araTTP / 2′F-araCTP (incorporation efficiency) / Enzymatic activity during primer extension reactions: ++++: excellent (no pausing observed); +++: very good (with slight pausing); ++: Good, full-length products with significant pausing; +: significant pausing, no full-length product but at least one 2′F-araN incorporation detected; conditions: for Order of efficiency of incorporation: DNA template PF22 (T/U triphosphates) or PF24 (C triphosphates), three contiguous units; for Incorporation of three 2′F-araTTP / 2′F-araCTP (incorporation efficiency): DNA template PF22 (2′F-araTTP) or PF24 (2′F-araCTP); for Enzymatic activity during primer extension reactions: plus dATP, dGTP
T1 construct: purchased New England Biolabs; host or cells: E. coli
T1 sequence (Q51334 other isoform, or with tags, fused parts or gaps D141A/E143A/DEL493-1029): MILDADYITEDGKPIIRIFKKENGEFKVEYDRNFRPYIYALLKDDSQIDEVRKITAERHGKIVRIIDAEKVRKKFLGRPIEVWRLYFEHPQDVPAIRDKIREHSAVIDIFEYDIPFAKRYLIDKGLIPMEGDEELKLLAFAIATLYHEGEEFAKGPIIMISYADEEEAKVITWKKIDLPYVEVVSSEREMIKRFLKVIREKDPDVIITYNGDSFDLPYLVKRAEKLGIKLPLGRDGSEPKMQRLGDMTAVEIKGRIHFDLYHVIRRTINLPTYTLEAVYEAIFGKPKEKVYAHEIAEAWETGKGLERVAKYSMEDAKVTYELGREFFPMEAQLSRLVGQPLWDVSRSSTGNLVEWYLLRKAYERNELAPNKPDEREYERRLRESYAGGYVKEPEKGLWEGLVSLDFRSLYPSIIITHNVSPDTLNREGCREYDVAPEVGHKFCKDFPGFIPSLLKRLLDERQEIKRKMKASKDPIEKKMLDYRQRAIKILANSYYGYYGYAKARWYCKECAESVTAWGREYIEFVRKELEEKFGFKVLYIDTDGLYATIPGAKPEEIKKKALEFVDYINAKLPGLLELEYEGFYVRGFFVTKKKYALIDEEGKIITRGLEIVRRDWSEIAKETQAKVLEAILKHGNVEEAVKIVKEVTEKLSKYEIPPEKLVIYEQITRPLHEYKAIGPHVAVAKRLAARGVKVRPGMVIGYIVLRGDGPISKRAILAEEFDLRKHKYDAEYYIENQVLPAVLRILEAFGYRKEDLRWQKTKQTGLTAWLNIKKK
Protocol: Various different types of DNA polymerases were assessed, including the mesophilic enzyme Klenow fragment of DNA pol I (3′→5′ exo-) (“Kf”); the thermophilic DNA polymerases DV, 9N, Taq, Bst pol I, Th and Ph; and the viral reverse transcriptases HIV RT and MMLV. Kf is a genetically engineered proteolytic product of E. coli pol A gene that encodes DNA polymerase I which retains polymerase activity but has a mutation which abolishes the 3′->5′ and 5′->3′ exonuclease activities. DV is a genetically engineered DNA polymerase purified from a strain of E. coli that carries the DV DNA polymerase gene from Pyrococcus species GB-D. The gene has been engineered to eliminate 3′->5′ proofreading exonuclease activity. 9N is a genetically engineered DNA polymerase that has decreased 3′->5′ proofreading exonuclease activity. 9N is purified from a strain of E. coli that carries a modified 9° N DNA polymerase gene from Thermococcus species (strain 9° N-7). […] Taq polymerase is isolated from E. coli engineered to express Taq polymerase from Thermus aquaticus YT-1. Bst DNA polymerase (Large fragment) is a genetically engineered polymerase that consists of the portion of the Bacillus stearothemmophilus DNA polymerase protein responsible for 5′->3′ polymerase activity but lacks the 5′->3′ exonuclease domain. Th DNA polymerase is a genetically engineered, archaeon-derived DNA polymerase that is a variant of the 9N polymerase described above. The recombinant protein is isolated from E. coli engineered to express 9° NA485L (exo-) DNA polymerase gene, a genetic variant of the native DNA polymerase from Thermococcus species 9° N-7. Ph is a recombinant DNA polymerase that consists of a novel Pyrococcus-like enzyme fused with a double-strand DNA-binding and processivity-enhancing domain.
Primer extension assays were used to assess the incorporation of 2′F-araNTP on the various DNA templates (Table 1). The DNA primer (PF20) was first radioactively labeled at the 5′-hydroxyl terminus with a radioactive phosphorus probe and the enzyme T4 polynucleotide kinase (T4 PNK) (see Example 1 for General Methods). To assess the incorporation of 2′F-araNTPs, the primer and template were annealed, and the nucleoside 5′-triphosphates added in the presence of enzyme under the conditions specified in Table 2. Time points were obtained by analyzing small aliquots from the reaction mixture through polyacryamide gel electrophoresis (PAGE) and autoradiography.
Unless otherwise noticed in the Examples described below, the conditions used in the primer extension assays, such as dNTP concentration, reaction temperatures, concentration of Mg^2+, and reaction buffers (provided by the manufacturers, except for the HIV buffer which was prepared in-house) are shown in Table 2.
Primer extension assays were used to assess the incorporation of 2′F-araTTP on the DNA template (PF22). The DNA primer (PF20) was first radioactively labeled at the 5′-hydroxyl terminus with a radioactive phosphorus probe and the enzyme T4 polynucleotide kinase (T4 PNK) according to the manufacturer's specifications (MBI Fermentas Life Sciences, Burlington, ON). Incorporation of the ^32P label was accomplished in reaction mixtures consisting of DNA substrate (200 pmol), 2 μl loxreaction buffer (Buffer A for forward reaction: 500 mM Tris-HCl, pH 7.6 at 25° C., 100 mM MgCl2, 50 mM DTT, 1 mM spermidine and 1 mM EDTA), 1 μl T4 PNK enzyme solution (10 U/1 μl in a solution of 20 mM Tris-HCl, pH 7.5, 25 mM KCl, 0.1 mM EDTA, 2 mM DTT and 50% glycerol), 6 μl [γ-^32P]-ATP solution (6000 Ci/mmol, 10 mCi/ml; Amersham Biosciences, Inc.) and autoclaved sterile water to a final volume of 20 μl. The reaction mixture was incubated for about 45-60 min at 37° C., followed by a second incubation for 10 min at 95° C. to heat denature and deactivate the kinase enzyme.

DNA polymerases = test: Primer extension assays, statement for all enzymes studied; format: biochemical; conditions: DNA template PF24; 9N, HIV, MMLV, DV
Text: Primer extension assays were used to assess the incorporation of 2′F-araNTP on the various DNA templates (Table 1). […] To assess the incorporation of 2′F-araNTPs, the primer and template were annealed, and the nucleoside 5′-triphosphates added in the presence of enzyme under the conditions specified in Table 2. Time points were obtained by analyzing small aliquots from the reaction mixture through polyacryamide gel electrophoresis (PAGE) and autoradiography.
Primer extension assays were used to assess the incorporation efficiency of contiguous 2′F-ara(T/C)TPs compared to 2′F-r(U/C)TP on a DNA template (e.g. PF22 or PF24). To this end, a DNA template (e.g. PF22: FIGS. 15, 16, 17A, 18, 21A; PF24: FIGS. 17B, 19, 20, 21B), primer and the appropriate NTPs (e.g. combination of dATP/dCTP/dGTP/ and NTP, where N=dT, 2′F-araT, 2′F-rU, or rU (FIGS. 15, 16, 17A, 18, 21A); or combination of dATP/dGTP/dTTP/ and NTP, where N=dC, 2′F-araC, 2′F-rC, or rC (FIGS. 17B, 19, 20, 21B)), were incubated in the presence one of MMLV-RT, 9N, HIV or DV polymerase.
Mineral oil (20 μL) was used to prevent evaporation. The reaction mixture was incubated at either 37° C. (for KF) or 55° C. (for other polymerases) and different enzyme was added to initiate the primer extension reaction. Time points were obtained by small aliquots (4 μL or 8 μL) from the reaction mixture and quenching the aliquot with the same volume of a stopping dye solution (98% deionized formamide, 10 mM EDTA, 1 mg/ml bromophenol blue and 1 mg/ml xylene cyanol). The product pattern from each time point was analyzed by 12% denaturing polyacryamide gel electrophoresis (PAGE) and subsequent autoradiography.
The primer extension assays were used to assess the incorporation efficiency of three contiguous 2′F-ara(T/C)TP versus 2′F-r(U/C)TP on a DNA template (PF22 or PF24). To this end, template PF22 (FIGS. 15, 16, 17A, 18 and 21A) or template PF24 (FIGS. 17B, 19, 20 and 21B); primer PF20; and the appropriate NTPs: dATP/dGTP/dCTP/ and NTP, where N=dT, 2′F-araT, 2′F-rU, or rU; or dATP/dGTP/dTTP/ and NTP, where N=dC, 2′F-araC, 2′F-rC, or rC; were incubated in the presence HIV (FIGS. 18 and 20), DV (FIG. 21), MMLV-RT (FIGS. 15, 16, and 19) or 9N (FIG. 17) following the protocols and conditions described in Example 2 and Table 2.

| Compound | % Apparent Fidelity, dNTP [1] [%] | Order of efficiency of incorporation ([2]; 55° C.) | % Apparent Fidelity, 2′F-araNTP [1] | Incorporation of three 2′F-araTTP / 2′F-araCTP (incorporation efficiency) ([2]; 37° C.) | order of incorporation efficiency (DNA polymerases) | also measured |
| --- | --- | --- | --- | --- | --- | --- |
| Cc1cn([C@H]2C[C@H](O)[C@@H](COP(=O)(O)OP(=O)(O)OP(=O)(O)O)O2)c(=O)[nH]c1=O [dTTP, reference compound] | >99 | dTTP~2′F-araTTP > 2′F-rUTP | – | – | – | – |
| O=c1ccn([C@@H]2O[C@H](COP(=O)(O)OP(=O)(O)OP(=O)(O)O)[C@@H](O)[C@H]2F)c(=O)[nH]1 [2′F-rUTP, 1-(2-deoxy-2-fluoro-β-D-ribo-furanosyl)uracil 5′-triphosphate, reference compound] | – | dTTP~2′F-araTTP > 2′F-rUTP | – | – | – | desired full-length product ([2]; DNA template PF22, after 9.5 h, 55° C.): 20% |
| Cc1cn([C@@H]2O[C@H](COP(=O)(O)OP(=O)(O)OP(=O)(O)O)[C@@H](O)[C@@H]2F)c(=O)[nH]c1=O [2′F-araTTP, 1-(2-deoxy-2-fluoro-β-D-arabino-furanosyl)thymine 5′-triphosphate] | – | dTTP~2′F-araTTP > 2′F-rUTP | T: >99% | ++++ | – | yield of full length product ([2]; DNA template PF22, after 5 min, 55° C.): nearly quantitative yield; also recorded: near quantitative yield; Enzymatic activity during primer extension reactions ([2]; Example 2, DNA template PF22, 3x 2′F-araTTP, dCTP, at 37° C.): +++^b |
| Nc1ccn([C@@H]2O[C@H](COP(=O)(O)OP(=O)(O)OP(=O)(O)O)[C@@H](O)[C@H]2F)c(=O)n1 [2′F-rCTP, 1-(2-deoxy-2-fluoro-β-D-ribofuranosyl) cytosine 5′-triphosphate, reference compound] | – | dCTP~2′F-rCTP~2′F-araCTP | – | – | dCTP=2′F-rCTP>2′F-araCTP >>rCTP | – |
| Nc1ccn([C@@H]2O[C@H](COP(=O)(O)OP(=O)(O)OP(=O)(O)O)[C@@H](O)[C@@H]2F)c(=O)n1 [2′F-araCTP, 1-(2-deoxy-2-fluoro-β-D-arabinofuranosyl)cytosine 5′-triphosphate] | – | dCTP~2′F-rCTP~2′F-araCTP | C: >99% | +++ | dCTP=2′F-rCTP>2′F-araCTP >>rCTP | Incorporation of three 2′F-araTTP / 2′F-araCTP (incorporation efficiency) ([2]; 55° C.): ++++; Enzymatic activity during primer extension reactions ([2]; Example 3, DNA template PF24, 3x 2′F-araCTP, dTTP, 55° C.): ++++ |
| Nc1ccn([C@H]2C[C@H](O)[C@@H](COP(=O)(O)OP(=O)(O)OP(=O)(O)O)O2)c(=O)n1 [dCTP] | >99 | dCTP~2′F-rCTP~2′F-araCTP | – | – | dCTP=2′F-rCTP>2′F-araCTP >>rCTP | – |

From patent US20090298708A1, “2'-DEOXY-2'-FLUORO-BETA-D-ARABINONUCLEOSIDE 5'-TRIPHOSPHATES AND THEIR USE IN ENZYMATIC NUCLEIC ACID SYNTHESIS” (priority 2006, published 2009)
